Laboratory results reported in US9085559B2, “Triazine-aryl-bis-indoles and process for preparation thereof” (COUNCIL OF SCIENTIFIC & INDUSTRIAL RESEARCH, priority 2010, dated 2015).

tested on: BALB/c 3T3 cell line; experiment: Balb/c 3T3 Neutral Red Uptake (NRU) cytotoxicity assay; format: cell-based; conditions: NRU cytotoxicity test (FIG. 8)
Source text: FIG. 8. IICT-TA67 is not toxic. To evaluate the cytotoxicity of test chemical (IICT-TA67) BALB/c 3T3 cell line was used for Neutral Red Uptake (NRU) cytotoxicity test. The test result has been used to determine IC50 for IICT-TA67 and acute oral toxicity (LD50) in rodent was predicted.
Basal cytotoxicity of IICT-TA67 has been performed to measure IC50 and thereafter predict in vivo acute oral LD50 values in rodent by using Halle's Registry of cytotoxicity (RC) prediction model: log (LD50)=0.435×log (IC50)+0.625 (Halle, 1998; Spielmann et al., 1999). Balb/c 3T3 Neutral Red Dye Uptake (NRU) cytotoxicity assay procedure was adopted (Liebsch & Spielmann 1995). In brief 3T3 cell were grown in 96 well microtitre plates and exposed to IICT-TA-67. After 48-hour incubation, the test material was removed and Neutral red (NR) solution was applied to the cells. The cells were incubated again, the excess NR solution was removed and finally NR was eluted from the cells. The NRU was determined by using a microtitre plate reader to measure the optical density at 540 nm of the eluted dye in 96 well plate. A calculation of cell viability expressed as NRU was made for each concentration of the test chemical by using the mean NRU of 6 replicate values per test concentration. The cell viability value was compared with the mean NRU of all vehicle control values and relative cell viability was then expressed as percent of untreated vehicle control. […] Although the percentage of viability is slightly more than 95% at 50 μg/ml of IICT-67, 30 μg/ml (% viability of cells is 98%)

| SMILES | toxicity |
| --- | --- |
| COc1ccc(C(c2[nH]c3ccccc3c2CC(=O)O)c2[nH]c3ccccc3c2CC(=O)O)cc1Oc1nc(Nc2ccccc2)nc(Nc2ccccc2)n1 [Compound 8, 2,2′-[2,2′-3-(4,6-bis-anilino)-1,3,5-triazin-2-yl-oxy-4-methoxyphenyl]-methylene-bis-(1H-indole-3,3-diyl)-diacetic acid] | potentially non toxic |

tested on: PDE-4; experiment: Phosphodiesterase 4 assay ([3H]cAMP SPA), enzyme preparation from rat heart; format: biochemical; conditions: PDE-4 activity, dose 10 μg/ml
Protocol: FIG. 2. […] To examine whether IICT-TA67 inhibits PDE-4 activity in vitro, enzyme preparations were incubated in the absence or presence of different concentrations (1-20 μg/ml) of IICT-TA67 and breakdown of cAMP was monitored by β counter.
Table 1. Measurement of phosphodiesterase (PDE)-4 activity by compounds.
Heart was excised from anesthetized rat and transfer into normal saline solution. […] The homogenate was centrifuged at 500×g for 5 minute at 4° C. Then sup was taken for further centrifuged at 40,000×g for 30 minute (ultra centrifugation). After centrifugation supernatant was collected for phosphodiesterase assay. Protein concentration was estimated and for each assay, 2.5 μg protein (PDE enzyme preparation) was used.
Phosphodiesterase 4 assay: Phosphodiesterase 4 assay was conducted with [^3H] cAMP SPA enzyme assay (GE Amersham, UK) using 2.5 μg enzyme preparation for each well. Into each well 60 μl water, 10 μl assay buffer supplied with the kit, 10 μl compound (inhibitor), 10 μl PDE enzyme or homogenizing buffer (blank) and 10 μl radiolabel led cAMP ([^3H]cAMP, GE Amersham, UK) were added. To check activity of the enzyme without inhibitor 10 μl DMSO was added in place of inhibitor to a separate well. The reaction mixtures were incubated for 30 mi at 30° C. The reaction was stopped by adding 50 μl SPA bead supplied with the kit. It was then mixed well and allowed to stand at room temperature for 20 min. Breakdown of cAMP in each tube was monitored by β counter. The reading in each tube was obtained in counts per minute (CPM). The reading of the blank tube (without enzyme) was subtracted from each tube to normalize the counts. The enzyme activity was calculated by considering the CPM reading without any inhibitor (compound) as 100.

| SMILES | Inhibition % [%] |
| --- | --- |
| COc1cc(C(c2cc3ccccc3[nH]2)c2cc3ccccc3[nH]2)ccc1Oc1nc(NC2CC2)nc(NC2CC2)n1 [Compound 1, 2,2′-[2,2′-4-(4,6-bis-cyclopropylamino)-1,3,5-triazin-2-yl-oxy-3-methoxyphenyl]-methylene-bis-1H-indole] | 16 |
| COc1cc(C(c2cc3ccccc3[nH]2)c2cc3ccccc3[nH]2)ccc1Oc1nc(Nc2ccccc2)nc(Nc2ccccc2)n1 [Compound 2, 2,2′-[2,2′-4-(4,6-bis-anilino)-1,3,5-triazin-2-yl-oxy-3-methoxyphenyl]-methylene-bis-1H-indole] | 34 |
| COc1cc(C(c2[nH]c3ccccc3c2CC(=O)O)c2[nH]c3ccccc3c2CC(=O)O)ccc1Oc1nc(NC2CC2)nc(NC2CC2)n1 [Compound 3, 2,2′-[2,2′-4-(4,6-bis-cyclopropylamino)-1,3,5-triazin-2-yl-oxy-3-methoxyphenyl]-methylene-bis-(1H-indole-3,3-diyl)-diacetic acid] | 42 |
| COc1cc(C(c2[nH]c3ccccc3c2CC(=O)O)c2[nH]c3ccccc3c2CC(=O)O)ccc1Oc1nc(Nc2ccccc2)nc(Nc2ccccc2)n1 [Compound 4, 2,2′-[2,2′-4-(4,6-bis-anilino)-1,3,5-triazin-2-yl-oxy-3-methoxyphenyl]-methylene-bis-(1H-indole-3,3-diyl)-diacetic acid] | 31 |
| COc1ccc(C(c2cc3ccccc3[nH]2)c2cc3ccccc3[nH]2)cc1Oc1nc(NC2CC2)nc(NC2CC2)n1 [Compound 5, 2,2′-[2,2′-3-(4,6-bis-cyclopropylamino)-1,3,5-triazin-2-yl-oxy-4-methoxyphenyl]-methylene-bis-1H-indole] | 34 |
| COc1ccc(C(c2cc3ccccc3[nH]2)c2cc3ccccc3[nH]2)cc1Oc1nc(Nc2ccccc2)nc(Nc2ccccc2)n1 [Compound 6, 2,2′-[2,2′-3-(4,6-bis-anilino)-1,3,5-triazin-2-yl-oxy-4-methoxyphenyl]-methylene-bis-1H-indole] | 45 |
| COc1ccc(C(c2[nH]c3ccccc3c2CC(=O)O)c2[nH]c3ccccc3c2CC(=O)O)cc1Oc1nc(Nc2ccccc2)nc(Nc2ccccc2)n1 [Compound 8, 2,2′-[2,2′-3-(4,6-bis-anilino)-1,3,5-triazin-2-yl-oxy-4-methoxyphenyl]-methylene-bis-(1H-indole-3,3-diyl)-diacetic acid] | 73 |
| Clc1nc(NC2CC2)nc(NC2CC2)n1 [Compound 10, 6-Chloro-N^2,N^4-dicyclopropyl-1,3,5-triazine-2,4-diamine] | 44 |
| Clc1nc(Nc2ccccc2)nc(Nc2ccccc2)n1 [Compound 11, 6-Chloro-N^2,N^4-diphenyl-1,3,5-triazine-2,4-diamine] | 53 |
| COc1cc(C=O)ccc1Oc1nc(NC2CC2)nc(NC2CC2)n1 [Compound 12, 4-[4,6-Bis-cyclopropylamino-1,3,5-triazin-2-yl-oxy]-3-methoxy benzaldehyde] | 29 |
| COc1cc(C=O)ccc1Oc1nc(Nc2ccccc2)nc(Nc2ccccc2)n1 [Compound 13, 4-[4,6-Bis-anilino-1,3,5-triazin-2-yl-oxy]-3-methoxy benzaldehyde] | 30 |
| COc1ccc(C2CNC(=O)C2)cc1OC1CCCC1 (centres unmarked) [Rolipram, reference compound] | 69 |

tested on: not listed separately; experiment: Pharmacokinetic study, oral and i.v. route; format: in vivo, swiss mice; conditions: mouse, in vivo
Protocol: FIG. 6. Pharmacokinetics of IICT-TA67 through oral route. FIG. 7. Pharmacokinetics of IICT-TA67 through intravenous (i.v) route in mice. IICT-TA67 (20 mg/kg) was administered orally (or 10 mg/kg by i.v. route) as a fine suspension in 1% Gum acacia. Blood samples were drawn from retro-orbital plexus at designated times in pre-labeled heparinised tubes and centrifuged (3500 rpm×10 minutes) to obtain the plasma. Blood samples were collected at 0, 5, 15 and 30 min, and 1, 2, 4, 6, 8, 16 and 24 hrs post-administration after oral/iv route. HPLC determinations were done on Shimadzu chromatograph (Model: LC-10 Atvp equipped with a diode array detector). The Molecule ICT-TA67 was determined at 276 nm using RP-18 column (5 μm×25 cm). Mobile phase consisted of acetonitrile: water (55:45) with a flow rate of 1.0 ml/min.
Animals. Healthy swiss mice of both the sexes (25-30) were used. The animals were kept (3/cage) under controlled conditions (temp 26±2° C.; relative humidity 50±5%; 12 h light/dark cycle) and maintained on pelleted rodent diet (Ashirwad Industries Ltd. Chandigarh, India). Water was provided ad libitum. Institutional Animal Ethics committee approved the animal experiments. Animals were fasted for 16 hours before use.
Step 1: Dosing: IICT-TA67 (20 mg/kg) was administered orally (or 10 mg/kg by i.v.route) as a fine suspension in 1% Gum acacia. Blood samples were drawn from retro-orbital plexus at designated times in pre-labeled heparinised tubes and centrifuged (3500 rpm×10 minutes) to obtain the plasma. Blood samples were collected at 0, 5, 15 and 30 min, and 1, 2, 4, 6, 8, 16 and 24 hrs post-administration after oral/iv route.
Step 2: HPLC determinations: Aliquots of plasma were mixed with acetonitrile (1:2), vortexed for two minutes (2500 rpm) and centrifuge at 5000 rpm for 10 min. The organic layer was collected and evaporated to dryness using solvent evaporator (Model: SPD 111V, Thermo Electron Corporation, MA). The dried samples were reconstituted in mobile phase for HPLC analysis. In a similar manner samples were also prepared from aliquots of plasma collected from untreated animals which were spiked with molecule 67 (0.25 μg-10 μg/ml). […] Reproducibility of the method was defined by both intra-, and inter-day variance. The retention time of Mol. 67 was 10.688 min, at which no other interfering peak was observed. The lower limit of detection (LOD) was 11 ng/ml; limit of quantitation (LOQ) was 32 ng/ml; recovery was 90±2%.
HPLC determinations were done on Shimadzu chromatograph (Model: LC-10 Atvp equipped with a diode array detector). Molecule 67 was determined at 276 nm using RP-18 column (5 μm×25 cm). Mobile phase consisted of acetonitrile: water (55:45) with a flow rate of 1.0 ml/min.
Step 3: Calculating Bioavailability indices: A concentration-time curve for Molecule 67 was established and pharmacokinetic parameters AUC, Cmax, and tmax were determined by a non-compartmental analysis using TOPFIT software package. Absolute bioavailability was determined using the following formula: AUCoral×doseiv/AUCiv×Doseoral.

| SMILES | bioavailability and pharmacokinetics |
| --- | --- |
| COc1ccc(C(c2[nH]c3ccccc3c2CC(=O)O)c2[nH]c3ccccc3c2CC(=O)O)cc1Oc1nc(Nc2ccccc2)nc(Nc2ccccc2)n1 [Compound 8, 2,2′-[2,2′-3-(4,6-bis-anilino)-1,3,5-triazin-2-yl-oxy-4-methoxyphenyl]-methylene-bis-(1H-indole-3,3-diyl)-diacetic acid] | potentially bioavailable with good pharmacokinetics |
